Measurements from patent US20260258084A1, “New Peptides as Selective IL-23 Receptor Antagonists” (Sanofi, priority 2022, published 2026).
≈ marks a conversion by molar mass, not a printed value. Where two headings read alike, the source gives them in different places. Starred links: 1 amine or outer side, 2 acyl side, 3 side chain; linkers in the order of their positions; H or OH if unused. Positions of bridges follow the written chain, without caps; N, C: chain ends. Non-standard residues stand in square brackets, D forms with d. Residues, ends and D or L forms follow the SMILES beside them. *: point of attachment. Trp(7-Me) = Cc1cccc2c(C[C@H](N)C(=O)O)c[nH]c12; X1 = O=C(CCCCN[*:3])N[C@@H](CS[*:2])C(=O)[*:1]; αMeLys(Me2) = CN(C)CCCC[C@](C)(N)C(=O)O; X2 = CN(C)[C@@H](CCCCN[*:1])C(=O)[*:2]; 2Nal = N[C@@H](Cc1ccc2ccccc2c1)C(=O)O; NMe5Ava = CN(CCCCC(=O)[*:2])[*:1]; 3Pal = N[C@@H](Cc1cccnc1)C(=O)O; αMeL = CC(C)C[C@](C)(N)C(=O)O; Me2NCH2CH2 = CN(C)CC*; Ava = NCCCCC(=O)O; Sar = CNCC(=O)O

Key:
[1] = target: T1, human interleukin-23 receptor (recombinant human IL-23R-Fc chimera) (Homo sapiens, UniProt Q5VWK5); assay: Human ELISA IL23/IL23R (assay for specific human IL23R antagonists); assay type: binding; settings: Table 10; read-out: Human ELISA IL23/IL23R IC50
T1 construct: Fc (IgG Fc fusion)
Description: Antagonism of compounds for human interleukin-23 receptor antagonists, was determined by an ELISA assay.
A 384-well plate was coated with 50 μl/well of human IL23 at a final concentration of […] and incubated overnight at 4° C. The wells were washed 3 times with 80 μl wash buffer and blocked with 80 μl blocking buffer for 60 minutes at room temperature and washed again. 20 μl of serially diluted test peptides was added to each well and subsequently 20 μl of recombinant human IL-23R-Fc chimera at final concentration of 0.1 μg/ml. The plate was incubated for 60 minutes at room temperature. After the wells were washed, bound IL23R-Fc was detected with goat anti-hu-IgG1-HRP antibody. Signals were visualized with QuantaBlu Fluorogenic Peroxidase Substrate.

[2] = Solubility testing of peptides at different pH; assay type: physicochemical; settings: target concentration 1 mg/ml, 2 hours agitation
Description: Prior to the solubility measurement of a synthesized peptide batch, its purity was determined through UPLC/MS (methods B-G).
For solubility testing the target concentration was 1 mg pure compound/ml. Therefore, solutions from solid samples were prepared in a buffer system at a concentration of 1 mg/mL compound. The solid samples were obtained by drying down aliquots of a dimethyl sulfoxide stock solution using a Thermo Speedvac vacuum centrifuge. The dry down time was 3 hours. • Solubility buffer system A) 50 mM HCl pH 1.2 • Solubility buffer system B) 50 mM phosphate buffer pH 6.5 • Solubility buffer system C) 50 mM phosphate buffer pH 7.4 • Solubility buffer system D) 50 mM phosphate buffer pH 9.0
UPLC-UV (Method A) was performed after 2 hours of gentle agitation from the filtered (0.45 μm filter plates) solutions, which was obtained by 10 mins of centrifugation forced filtration at 1500 RCF (relative centrifugal acceleration).
The solubility was determined by the comparison of the UV peak area of 2 μL-injections of a buffered sample diluted 1:5 with a standard curve of a dimethyl sulfoxide reference sample of the diluted in dimethyl sulfoxide with known concentration. The different extinction coefficients were taken into account for the calculation.

[3] = Chemical stability assessment of peptides (relative purity loss); assay type: physicochemical; settings: 24 hours at 37° C.; for Chemical stability (relative purity loss) Buffer pH 1.2: 50 mM HCl pH 1.2 + acetonitrile (1:1); for Chemical stability (relative purity loss) Buffer pH 6.5: 50 mM phosphate buffer pH 6.5 + acetonitrile (1:1); for Chemical stability (relative purity loss) Buffer pH 7.4: 50 mM phosphate buffer pH 7.4 + acetonitrile (1:1)
Description: Purity of a peptide batch was determined through UPLC/MS (Methods B-G) prior to chemical stability measurement. The target concentration was 1 mg/ml pure compound. Solutions from solid samples were prepared in the following buffer systems with a concentration of 1 mg/ml compound based on the previously determined % purity: • Solubility buffer system A) 50 mM HCl pH 1.2+Acetonitrile (1:1) • Solubility buffer system B) 50 mM phosphate buffer pH 6.5+Acetonitrile (1:1) • Solubility buffer system C) 50 mM phosphate buffer pH 7.4+Acetonitrile (1:1)
Prepared solutions were stored for 24 hours at 2° C. and 37° C. After this time course, the samples were centrifuged for 15 min at 2500 RCF to create a 1:5 dilution of the supernatant. Then 2 μl of the dilution were analysed with UHPLC-UV.
The chemical stability was rated through the relative loss of purity calculated by the equation:
[(purity after 0 hours at 37° C.)−(purity after 24 hours at 37° C.)]/(purity after 0 hours at 37° C.)]*100%
The purity is calculated as [(peak area peptide)/(total peak area)]*100%.

Pepsin = system: T2, Pepsin; assay: Protease stability in simulated gastric fluid (Pepsin-SGF, FaSSGF); assay type: in vitro ADME; settings: simulated gastric fluid with pepsin (Pepsin-SGF), 60 min, 1 μM peptide, 37° C., read-out: FaSSGF 60 (min), remaining percent of peptide
T2 construct: purchased Merck Millipore
Description: (§1) Studies were carried out in simulated intestinal fluid (SIF) and simulated gastric fluid (SGF) to evaluate gastric stability of the peptide compounds disclosed herein.
For clarification the term “Pepsin-SGF” refers to a solution of simulated gastric fluid containing pepsin whereas “SGF media” refers to a solution of simulated gastric fluid without pepsin. Pepsin-SGF was prepared by dissolving 320 mg Pepsin (Merck Millipore) in 100 mL SGF media concentrate (ProSense).
(§2) Peptides were first dissolved at 1 mM stock concentration in 0.01 HCl (+/−10% of DMSO) and were than diluted further with water to a stock concentration of 20 μM. Final peptide concentration in the incubation was 1 μM.
(§3) To 76 μL of the Pepsin-SGF buffer, 4 μL of the 20 μM peptide stock solution was added and incubated at 37° C. At each timepoint (0, 60, 120 and 240 minutes) the reaction was quenched with addition of 80 μL Ethanol (0.1% HCOOH). The samples were centrifuged for 20 minutes and an aliquot of the supernatant 100 μL were transferred to a LoBind-MTP plate and analyzed by LCMS/MS. The peak area response was calculated at each time point for each test compound. As internal reference, the peak area response of the same test compound at TO was calculated. The percent remaining at each timepoint was calculated based on the peak area response ratio of the test compound at TO. Time 0 was set to 100%, and all later timepoints were calculated relative to time 0.

Pancreatin = assay: Protease stability in simulated intestinal fluid (Pancreatin-SIF, FaSSIF); assay type: in vitro ADME; settings: 1 μM peptide, 37° C.; for remaining at 1 h, 1 µM: 60 min, read-out: FaSSIF 60 (min), remaining percent of peptide; for remaining at 2 h, 1 µM: 120 min, read-out: FaSSIF 120 (min), remaining percent of peptide; for remaining at 4 h, 1 µM: 240 min, read-out: FaSSIF 240 (min), remaining percent of peptide
Description: as §1
Similarly, the term “Pancreatin-SIF” refers to a solution of simulated intestinal fluid containing pancreatin whereas “SIF-media” refers to a solution of simulated intestinal fluid without pancreatin.
Pancreatin-SIF was prepared by dissolving 1 mg Pancreatin (MP Biomedicals) in 10 mL SIF media concentrate (ProSense).
as §2
as §3, with “µM” for “μM”

[4] = system: IL-23 induced STAT3 signaling in HEK-Blue™ IL-23 cells; assay: IL-23 induced STAT3 signaling in HEK-Blue IL-23 cells (SEAP reporter); assay type: cell-based; settings: human IL23 0.25 ng/ml, read-out: pSTAT3
Text: HEK-Blue™ IL-23 cells (Invivogen) are designed for the detection of bioactive human (hIL-23) and murine IL-23 (mIL-23) by monitoring the activation of the STAT3 pathway. Binding of IL-23 to its receptor on the surface of HEK-Blue™ IL-23 cells triggers a signalling cascade leading to the activation of STAT3 and the subsequent production of secreted embryonic alkaline phosphatase (SEAP). This can be readily assessed using QUANTI-Blue™ Solution, a SEAP detection reagent.
HEK-Blue™ IL-23 cells were cultured as described by Invivogen.
On the first day of assay 10 μL of the HEK-Blue IL23 cell suspension (final concentration: 10,000 cells/well) and 10 μl of serially diluted peptides solutions were dispensed into a 384-well assay plate. After pre-incubation of the reaction mixtures at 37° C./5% CO2/95% humidity for 60 minutes, 10 μl of the human IL23 cytokine (final concentration: 0.25 ng/ml) was added to each well for the STAT3 signalling activation. The plate was incubated overnight at 37° C./5% CO2/95% humidity.
On the second day 20 μl per well of Quanti-Blue detection solution (prepared according to the manufacture instruction) was dispensed into a new 384-well plate and followed by the transfer of 5 μl supernatant of the overnight incubated cell/sample mixtures. After incubation of 45 min at room temperature signals were measured with PHERAstar (BMG) at OD 620-655 nm. Dose response data were fitted with XLfit.

[5] = 50 mM HCl buffer, 50 mM HCl pH 1.2, read-out: Solubility Buffer pH 1.2
[6] = 50 mM phosphate buffer pH 6.5, read-out: Solubility Buffer pH 6.5
[7] = 50 mM phosphate buffer pH 7.4, read-out: Solubility Buffer pH 7.4
[8] = 50 mM phosphate buffer pH 9.0, read-out: Solubility Buffer pH 9.0

IC50 [1] [pM]	solubility at 2 h [2, 5] [µg/mL]	solubility at 2 h [2, 6] [µg/mL]	solubility at 2 h [2, 7] [µg/mL]	solubility at 2 h [2, 8] [µg/mL]	Chemical stability (relative purity loss) Buffer pH 1.2 [3] [%]	Chemical stability (relative purity loss) Buffer pH 6.5 [3] [%]	Chemical stability (relative purity loss) Buffer pH 7.4 [3] [%]	remaining at 1 h, 1 µM (Pepsin) [%]	remaining at 1 h, 1 µM (Pancreatin) [%]	remaining at 2 h, 1 µM (Pancreatin) [%]	remaining at 4 h, 1 µM (Pancreatin) [%]	SMILES	IC50 [4] [pM]
–	≥ 980	≥ 910	≥ 960	–	–	–	–	86	96	96	92	CC(=O)NCCCC[C@@H]1NC(=O)[C@H](Cc2c[nH]c3c(C)cccc23)NC(=O)[C@H]([C@@H](C)O)NC(=O)[C@H](CC(N)=O)NC(=O)[C@@H]2CSSC[C@H](NC1=O)C(=O)N[C@@H](Cc1ccc(OCCN(C)C)cc1)C(=O)N[C@@H](Cc1ccc3ccccc3c1)C(=O)N[C@@](C)(CC(C)C)C(=O)N[C@H](C(=O)N[C@@H](CC(N)=O)C(=O)N[C@@H](Cc1cccnc1)C(=O)N(C)CC(N)=O)CCC(=O)NCCCCC(=O)N2 [compound 65] ([Ava]CNT[Trp(7-Me)]K(Ac)CY(Me2NCH2CH2)[2Nal][αMeL]EN[3Pal][Sar]-NH2; disulfide 2-7; lactam N-11)	230
–	–	–	–	–	–	–	–	96	90	74	62	CC(=O)NCCCC[C@@H]1NC(=O)[C@H](Cc2c[nH]c3c(C)cccc23)NC(=O)[C@@H](N(C)C)CCCCNC(=O)[C@@H]2CSSC[C@H](NC1=O)C(=O)N[C@@H](Cc1ccc(OCCN(C)C)cc1)C(=O)N[C@@H](Cc1ccc3ccccc3c1)C(=O)N[C@@](C)(CCCCN(C)C)C(=O)N[C@H](C(=O)N[C@@H](CC(N)=O)C(=O)N[C@@H](Cc1cccnc1)C(=O)N(C)CC(N)=O)CCC(=O)N(C)CCCCC(=O)N2 [compound 61] ([NMe5Ava]C[X2][Trp(7-Me)]K(Ac)CY(Me2NCH2CH2)[2Nal][αMeLys(Me2)]EN[3Pal][Sar]-NH2; disulfide 2-6; lactam N-10)	4400

Continued, molecule first:

SMILES	IC50 [1] [pM]	solubility at 2 h [2, 5] [µg/mL]	solubility at 2 h [2, 6] [µg/mL]	solubility at 2 h [2, 7] [µg/mL]	solubility at 2 h [2, 8] [µg/mL]	Chemical stability (relative purity loss) Buffer pH 1.2 [3] [%]	Chemical stability (relative purity loss) Buffer pH 6.5 [3] [%]	Chemical stability (relative purity loss) Buffer pH 7.4 [3] [%]	remaining at 1 h, 1 µM (Pepsin) [%]	remaining at 1 h, 1 µM (Pancreatin) [%]	remaining at 2 h, 1 µM (Pancreatin) [%]	remaining at 4 h, 1 µM (Pancreatin) [%]	IC50 [4] [pM]
CC(=O)NCCCC[C@@H]1NC(=O)[C@H](Cc2c[nH]c3c(C)cccc23)NC(=O)[C@@H](NC(C)=O)CCCCNC(=O)[C@@H]2CSSC[C@H](NC1=O)C(=O)N[C@@H](Cc1ccc(OCCN(C)C)cc1)C(=O)N[C@@H](Cc1ccc3ccccc3c1)C(=O)NC1(CCOCC1)C(=O)N[C@H](C(=O)N[C@@H](CC(N)=O)C(=O)N[C@@H](Cc1cccnc1)C(=O)N(C)CC(N)=O)CCCCN(C)CCCCN2C [compound 127]	530	≥ 1520	≥ 1130	≥ 1120	620 (≈ 333 µM)	6.0	9.0	11.0	100	99	101	97	–
CC(=O)NCCCC[C@@H]1NC(=O)[C@H](Cc2c[nH]c3c(C)cccc23)NC(=O)[C@H]([C@@H](C)O)NC(=O)[C@H](CC(N)=O)NC(=O)[C@@H]2CSSC[C@H](NC1=O)C(=O)N[C@@H](Cc1ccc(OCCN(C)C)cc1)C(=O)N[C@H](Cc1ccc3ccccc3c1)C(=O)NC1(CCOCC1)C(=O)N[C@H](C(=O)N[C@@H](CC(N)=O)C(=O)N[C@@H](Cc1cccnc1)C(=O)N(C)CC(N)=O)CCC(=O)NCCCCC(=O)N2 [compound 35]	–	≥ 1070	≥ 1030	≥ 1060	≥ 1140	10.1	1.3	1.7	92	91	92	92	340
CC(=O)N[C@H]1CCCCNC(=O)[C@@H]2CSSC[C@H](NC(=O)[C@H](CCC(N)=O)NC(=O)[C@H](Cc3c[nH]c4ccccc34)NC1=O)C(=O)N[C@@H](Cc1ccc(OCCN(C)C)cc1)C(=O)N[C@@H](Cc1ccc3ccccc3c1)C(=O)N[C@@](C)(CC(C)C)C(=O)N[C@H](C(=O)N[C@@H](CC(N)=O)C(=O)N[C@@H](CC(N)=O)C(N)=O)CCC(=O)NCCCCC(=O)N2 [compound 28] (Ac-KWQCY(Me2NCH2CH2)[2Nal][αMeL]ENN-NH2; linker 1-4-8 via X1)	–	–	–	–	–	–	–	–	83	80	68	65	4110
